In patent EP0525360B1, “Novel phenylacetamide derivatives and processes for the preparation thereof” (KOREA RESEARCH INSTITUTE OF CHEMICAL TECHNOLOGY, priority 1991, dated 1993):
Where two headings read alike, the source gives them in different places.

Assays:
Rats(Sprague-Dawley) = experiment: Tail-pinch test in rats with hyperalgesia induced by Freund's adjuvant; assay type: in vivo
Description: Rats(Sprague-Dawley) weighing 120g to 170g were used. Desiccated Mycobacterium butyricum(Difco Laboratories, Detroit, MI) was ground in a mortar, suspended in liquid paraffin, sterilized in an autoclave, and injected(0.5mg in 0.1mℓ, s.c.) in the distal region of the tail through a 1-inch 21-gauge needle. […] The hypersensitivity of the tail was examined as follows: the animal was held comfortably in one hand and gentle pressure was applied with the fingers of the opposite hand to the injected area. This gentle squeeze or "tail pinch" elicited a "squeak" from the animal. Five such stimuli were given at 4-second intervals. If the animal emitted no more than one squeak in five trials, it was recorded as having analgesia and given a rating of 1. […] The analgesic activity was determined by the following equation: Analgesic activity =(Total rating)/(Tested aminal number)x 100 [formula] The compound of Example 1, administered two hours before tail-pinch testing perorally, caused a dose related inhibition of adjuvant induced hyperalgesia, as shown in Table 6.

[1] = test system: Rats(Sprague-Dawley, female); experiment: Anti-inflammatory test (carrageenin paw edema); assay type: in vivo; settings: Rattus norvegicus, sc; s. c., twenty minutes before carrageenin; edema volume 3 hours later; read-out: ED50
Description: Rats(Sprague-Dawley, female) weighing 100 to 120g were used. Twenty minutes after the test drug was administered(s. c.), carrageenin was injected(0.1mℓ of 1% solution, s. c.) in the plantar surface of the right hind paw.
The percentage of inhibition was determined by the following equation: Inhibition(%) =(Volume of the carrageenin treated foot - Volume of the control foot)/(Volume of the contol foot)x 100 [formula]

[2] = test system: Rats(Sprague-Dawley, female); experiment: Local anti-inflammatory test (transdermal, carrageenin paw edema); assay type: in vivo; settings: for Double Dose(24 hr), percentage of inhibition: transdermal double dose (second application 7 hours later), edema measured 24 hours later; for Single Dose(1 hr), percentage of inhibition: transdermal single dose, edema measured 1 hour later
Description: Rats(Sprague-Dawley, female) weighing 100 to 120g were used. 20 minutes after the test drug was administered transdermally (another application 7 hours later for double dose experiment), carrageenin was injected(0.1ml of 1% solution, s. c.) into the plantar surface of the right hind paw. The volume of the edema was measured with a volumeter either 1 hour later for […] dose experiment or 24 hours later for double dose experiment; and the percentage of inhibition was measured by the same equation as used in Anti-inflammatory Test.

KTC-ICR mice = experiment: acetic acid induced writhing test; assay type: in vivo; settings: Mus musculus; oral; 0.9% acetic acid i.p. 60 minutes later; writhings during 10 minutes; mice 20 to 25g; Examples 1 to 32
Description: The KTC-ICR mice derived from Charles River Breeding Laboratory in the United States and provided by Experimental Animal Laboratory of Korea Research Institute of Chemical Technology were used as test animals. […] They were tested after having been adjusted to the testing environment for a week. Food and water were given freely; and illumination was maintained on a 12-hour cycle.
Experiments were performed in two ways: that is, the acetic acid induced writhing test and the phenyl-1,4-benzoquinone(PBQ) induced writhing test.
Solutions for the acetic acid induced writhing test were prepared by dissolving one of the end products prepared in Examples […] in a saline solution containing 1% by weight of Tween 80 to have a concentration of 5mg/mℓ and diluting it serially with the saline solution. The test solutions were administered orally in a dose of 0.3mℓ per 30g of body weight, using the 5 ICR mice for each test. 60 minutes later, 0.9% acetic acid solution was administered intraperitoneally in a dose of 0.1mℓ per 30g of body weight. 3 minutes thereafter, the number of writhings generated during a period of 10 minutes due to the administration of acetic acid was measured. For comparison purpose, initially, saline solution alone was administered orally to the control group. 60 minutes thereafter, 0.9% acetic acid solution was administered intraperitoneally to the control group.
The number of writhings suffered by the test group was compared with that of the control group; and the analgesic effect was measured in terms of the percentage of inhibition of writhing(I. W.). I. W. (%) =(A - B)/(A)x 100 [formula] A : the number of writhings suffered by the control group, B : the number of writhings suffered by the test group.
These ED50 values for the test compounds are shown in the last column of Table 1.

[3] = test system: Male albino rats(120-170g) of the Charles River Sprague-Dawley strain; experiment: Randall-Selitto test (yeast induced hyperalgesia); assay type: in vivo; settings: dose 5 mg/Kg p. o.; 5 rats
Description: Randall-Selitto Test was carried out by following the method described in Arch. Int. Pharmacodyn.
Male albino rats(120-170g) of the Charles River Sprague-Dawley strain were used. Inflammation was produced by the injection of 0.1mℓ of a 20% suspension of Brewer's yeast into the plantar surface of the rat's hind foot.
The pain threshold was measured as the pressure in mmHg required to induce the desired response(a sharp audible squeak and/or struggle) when the pressure was applied to the foot. Air pressure from an air line was admitted through a needle valve to a 20mℓ glass syringe and to a pressure gauge which was connected by a T-tube. The syringe was mounted with the plunger downward to which was connected a short bullet-shaped Teflon peg. The pressure was applied to the foot of the rat at the rate of 10 mmHg per second. Drug was given 2 hours after the yeast injection. Two hours after the drug administration, threshold response was determined.
The analgesic activity was determined in terms of the percentage of inhibition of response: Inhibition(%) =(Threshold of the treated group - Threshold of the control group)/(Threshold of the control group)x 100 [formula]

mice [4] = experiment: Tail-flick test (radiant heat); assay type: in vivo
Description: Radiant heat was applied using a beam of high-intensity light focused on a tail spot. The response time, defined as the interval between the onset of the stimulus and the tail flick, was measured electronically(to the nearest 0.1 second). The beam intensity was set at a level giving a mean control reaction time of 3.8±0.4 seconds. […] The percentage of inhibition was determined by the following equation: Inhibition(%) =(Reaction time of the treated group - Reaction time of the control group)/(Reaction time of the control group)x 100 [formula]

mice [5] = experiment: Hot-plate test; assay type: in vivo; settings: p. o.
Description: Mice were placed on an aluminum plate maintained at 55± 0.5°C by a thermo-regulator(Harvard). A glass cylinder, 15cm in height and 15cm in diameter, served to confine the mice to the heated plate. Blowing of the fore paws was used as the end-point for determination of response latency(measured to the neatest 0.1 second).

acute toxicity test = settings: mouse, in vivo, po, per os, 5 weeks old, observed for 14 days
[6] = test system: Salmonella typhimurium TA 100; experiment: mutagenicity test (Maron and Ames); assay type: cell-based; settings: 3.2, 16, 80 and 400µg/plate
Description: (§1) The numbers of mutated colonies were not increased at concentrations of 3.2, 16, 80 and 400µg/plate for the test compound.

[7] = test system: Salmonella typhimurium TA98; experiment: mutagenicity test (Maron and Ames); assay type: cell-based; settings: 3.2, 16, 80 and 400µg/plate
Description: as §1

[8] = Use Examples: administration of compositions to human subjects; assay type: in vivo; settings: 0.4mℓ on 80cm^2 of the forearm, 60kg male adult
Description: One tablet was administered orally to a patient(weight: 67kg) in need of analgesia two times daily to successfully provide the effect of general analgesia.
The compound of Example 5 was dissolved in sesame oil with the aid of sonication and was packaged in soft gelatin capsules using the common methods known in the art.
The above ingredients were mixed to produce a syrup which was packaged under a sterile condition in 6 oz. bottles. One teaspoon of this formulation was administrated to a 70kg adult, reducing inflammation and producing analgesia.
The compound of Example 1 was dissolved in a solution containing the other ingredients.

[9] = dose 5 mg/Kg, 7 rats, Example 1 perorally two hours before testing

COc1ccc2cc([C@H](C)C(=O)O)ccc2c1 [Naproxen, reference compound]
Analgesic activity(%) (Rats(Sprague-Dawley); [9]): 28.6% | ED50 [1]: 43 mg/kg | Double Dose(24 hr), percentage of inhibition [2]: 25% | Single Dose(1 hr), percentage of inhibition [2]: 54%

COc1cc(CC(=O)NCCCc2ccc(C)c(C)c2)ccc1OCCN [Example 1, N-{3-(3,4-dimethylphenyl)propyl}-4-(2-aminoethoxy)-3-methoxyphenylacetamide]
ED50 (KTC-ICR mice): 0.08 mg/kg | Inhibition(%) [3]: 247.4% | Inhibition(%) (mice [4]; p. o., dose 1.25 mg/Kg): 10% | Inhibition(%) (mice [4]; p. o., dose 2.5 mg/Kg): 60% | Inhibition(%) (mice [4]; p. o., dose 5.0 mg/Kg): 80% | Inhibition(%) (mice [4]; p. o., dose 7.5 mg/Kg): 90% | Inhibition(%) (mice [4]; s. c., dose 0.5 mg/Kg): 50% | Inhibition(%) (mice [4]; s. c., dose 1.0 mg/Kg): 70% | Inhibition(%) (mice [5]; dose 2.5 mg/Kg): 28.6% | Inhibition(%) (mice [5]; dose 5.0 mg/Kg): 48.9% | Inhibition(%) (mice [5]; dose 10.0 mg/Kg): 97.0% | Analgesic activity(%) (Rats(Sprague-Dawley); [9]): 45.9% | Analgesic activity(%) (Rats(Sprague-Dawley); dose 10 mg/Kg, 6 rats, perorally two hours before testing): 66.7% | ED50 [1]: 4 mg/kg | Double Dose(24 hr), percentage of inhibition [2]: 32% | Single Dose(1 hr), percentage of inhibition [2]: 66% | LD50 at 336 h (acute toxicity test; 5 ICR female mice, read-out: LD50(female)): 364 mg/kg | LD50 at 336 h (acute toxicity test; 5 ICR male mice, read-out: LD50(male)): 224 mg/kg | numbers of mutated colonies [6]: not increased | numbers of mutated colonies [7]: not increased | local analgesia after topical application ([8]; Use Example 5 liquid (4g in glycerol/water)): local analgesia which lasted for two days | skin irritation after topical application ([8]; Use Example 5 liquid): Little or no skin irritation was observed
